Compound	melting point
CCOc1ccccc1-c1nc2c(C(N)=O)cccc2c(=O)[nH]1	252 to 254 °C
O=C1NCCN1c1ccc(S(=O)(=O)Nc2cccc(Oc3ccccc3)c2)cc1	208 to 211 °C
CC1Cc2cc3c(cc2C(c2ccc([N+](=O)[O-])cc2)=NN1C1=NC(=O)CCS1)OCO3 (stereo not drawn)	220 to 221 °C
COc1cccc2c1CCC1=C2CC(=O)N1	220 to 222 °C
CC(=O)C(=Cc1cccc([N+](=O)[O-])c1)P(=O)(OCC(C)C)OCC(C)C	81 to 82 °C
Nc1cc(N2CC(c3ccccc3)OC2=O)ccn1 (stereo not drawn)	155 to 156 °C
CCn1c(C)nc2cc(C(F)(F)F)c(Cl)c([N+](=O)[O-])c21	114 to 116 °C
CC1(C)c2ccccc2C(C)(C)N1O	128 to 130 °C
Cc1cc(C)c2c(c1C)OCC2=O	92 to 93 °C
CCOC(=O)Cc1c2c(nn1CC)c(=O)[nH]c1ccccc12	233 to 235 °C
C[C@](O)(COc1ccc(F)cc1)C(=O)Nc1ccc(C#N)c(C(F)(F)F)c1	139 to 140 °C
CC12C=CC(=O)C=C1CCC1C2C(O)CC2(C)C(C(=O)CO)=CCC12 (stereo not drawn)	213 to 215 °C
CCOc1ccc2[nH]c(=O)n(N3CCOCC3)c2c1	155 °C
CN1C(=O)c2c(Oc3ccccc3OS(=O)(=O)C(F)(F)F)cc3c(c2C1=O)c1ccc(OCc2ccccc2)cc1n3C(=O)OC(C)(C)C	186 °C
CCOC(C)=CC(=O)Nc1ccc(Cl)c(Cl)c1	126 °C
CC(=O)N1c2c(ccn3c(C)c(C)nc23)[C@@H](O)[C@H](OC(=O)C(C)(C)C)[C@H]1c1ccccc1	103 to 105 °C
Cc1nc(C)c(C(=O)Nc2ccc(-n3nc(C4CC4)cc3C3CC3)cc2)s1	98 to 114 °C
CC1COc2c(C3CC3)c(F)c(N)c3c(=O)c(C(=O)O)cn1c23 (stereo not drawn)	> 280 °C
CC(C)(C)c1cc(Sc2n[nH]c(=S)s2)cc(C(C)(C)C)c1O	181 to 186 °C

Compound	melting point
C=C(C)COc1ccc(Br)cc1CN(CC)c1ccc(-c2nnco2)nn1	90 to 92 °C
Cc1nn(-c2ccc(C#N)c(Cl)c2)c(C)c1Cc1ccc(C(=O)N2CC(O)C2)cc1	115 to 117 °C
Cc1nc(-n2ccc(OCCC3CC3)cc2=O)sc1C(=O)NCc1ccc(F)cc1	172 to 174 °C
CC(C)N1C(=O)N(c2ccc([N+](=O)[O-])c(C(F)(F)F)c2)C(=O)C1(C)C	130 °C
CC(NC(=O)Cc1cc(F)cc(F)c1)C(=O)NC1(c2ccccc2)NC(=O)Cc2ccccc21 (stereo not drawn)	200 to 205 °C
C=C[C@H](Cc1ccccc1)NC(=O)OCc1ccccc1	87 to 88 °C
CCOc1cc2c(cc1OCC)C(C(S)(C#N)c1ccccc1)=NCC2 (stereo not drawn)	118 to 119 °C
Cc1nc(CO)c2n1-c1ccc(Cl)cc1C(c1ccccc1Cl)=NC2	215 to 217 °C
COc1ccc(CNC(=O)C23CC4CC(CC(C4)C2)C3)cc1OC	120 to 122 °C
CCOC(=O)c1cn(C[C@@H]2CN(c3ccc(N4CCC(=CC#N)CC4)c(F)c3)C(=O)O2)nn1	164 to 166 °C
CCC(=NO)c1ccccc1O	88 to 90 °C
COC(=O)c1cccc(Cn2c(=O)c(=O)n(Cc3cccc(C(=O)O)c3)c3ccc([N+](=O)[O-])cc32)c1	238 to 240 °C
N#Cc1ccc(N(Cc2ccc(OS(N)(=O)=O)cc2)n2cnnc2)cc1-c1ccoc1	195 to 196 °C
CCCOc1ccc([N+](=O)[O-])c(C)c1Cl	42 to 43 °C
Cn1cc(C(=O)Nc2cnccc2-c2ccc(Cl)cc2)c(C(F)(F)F)c1	178 to 180 °C
COc1ccc(NC(=O)N2CCc3cc(F)c(Cl)cc32)cc1N1CCN(C)CC1	177 to 180 °C
O=C(NNS(=O)(=O)c1ccccc1)c1ccc(NCc2ccccc2)cc1	214 to 215 °C
COc1ccc(C(=O)c2cc3cc(OC)ccc3[nH]2)cc1	155 to 158 °C
CC1=NCC(=S)Nc2ccc(Cl)cc21	201 to 203 °C

Source: a melting point compilation (Tetko et al.; mined from patent text by program, amines drawn as free bases though some values may be those of a salt)
